In patent publication US20210308138A1, “TISSUE TRANSGLUTAMINASE MODULATORS FOR MEDICINAL USE” (Aarhus Universitet, priority 2018, published 2021):

What was measured:
[1] = test system: Male Wistar rats; experiment: Mean arterial pressure (MAP) in vivo measurement after intrajugular infusion
Description: For ‘in vivo’ experiments Wistar rats of different age were fasted 8 h before anesthesia with 35 mg/kg of S-ketamine and 50 mg/kg of pentobarbital sodium administered intraperitoneally.
Male Wistar rats with 12-14 and 30-35 weeks of age were anesthetized with s-ketamine (35 mg/kg) and pentobarbital (50 mg/kg) and placed on a heated blanket to maintain body temperature at 37° C. ECG needles were installed for electrocardiographic measurements and a solid state catheter (Millar Inc, Houston, USA) was introduced into the carotid artery to measure MAP. MAP and electrocardiographic data was continuously recorded on a computerized data acquisition system (PowerLab, ADInstruments). Adequate depth of anesthesia was checked periodically by the absence of the toe pinch withdrawal effect and ⅓ of the initial dose of anesthetics was administered intraperitoneally when needed (usually each 1½ h). Changes in MAP and electrocardiographic signal in response to intrajugular infusion during 3 minutes of different doses of LDN-27219 and the corresponding vehicle (PEG-400) were studied.
The Area Under the Curve (AUC) was calculated using Graphpad Prism 5.1 (GraphPad Software, San Diego, Calif., USA) for each response to the change in MAP that was collected during the experiments in example 3. The AUC gives information about the maximal response, and about the duration of the effect.
Rats of different age in these experiments were anesthetized, prepared and catheterized as described in Example 3.

[2] = test system: vascular smooth muscle cells (VSMCs) potassium currents; experiment: Whole-cell patch-clamp of K+ outward currents in isolated vascular smooth muscle cells; assay type: cell-based, rat; details: LDN-27219 3·10^−5 mol/L 12 min; VA-5 5·10^−5 mol/L one hour incubation
Description: For isolation of VSMCs, rat mesenteric arteries were dissected as previously described, opened longitudinally and stored in ice-cold dissociation solution containing (mmol/L): 119 NaCl, 4.7 KCl, 1.18 KH2PO4, 1.17 MgSO4, 24.9 NaHCO3, 0.027 EDTA, and 11 glucose, pH=7.4. Arteries were then equilibrated during 10 min in a dissociation solution with bovine albumin serum (BSA; 1 mg/mL) at 37° C. and then exposed to the same solution supplemented with papain (0.5 mg/mL; Worthington Biochemical Corp., Lakewood, N.J., USA) and dithiothreitol (DTT; 1 mg/mL) at 37° C. for 8 min. Arteries were then washed in ice-cold dissociation solution and moved to dissociation solution containing BSA (1 mg/mL) and collagenase (0.7 mg/mL type F and 0.4 mg/mL type H; Worthington Biochemical Corp.) at 37° C. for 3 min. […]
Membrane currents were recorded under the whole-cell configuration of the patch-clamp technique using an Axon Multiclamp 700A amplifier (Axon instruments, Molecular Devices, CA, USA). […] Current-voltage relations were determined using 600 ms voltage ramps from −100 to 160 mV and a holding potential (Vh) of −65 mV for SMCs.
Amplitudes of K^+-outward currents were measured in control conditions and 12 min after the addition of LDN-27219 (3·10^−5 mol/L) to the extracellular solution by a perfusion system.

[3] = Pharmacokinetic study, single intravenous dose, non-compartmental model; assay type: in vivo; details: mouse, blood, single 2 mg/kg intravenous dose, mice
[4] = test system: diabetic male BKS(D)-Leprdb/JOrlRj homozygous mice; experiment: Long-term in vivo treatment of diabetic mice, endothelial function as acetylcholine-induced relaxation of small mesenteric arteries; details: LDN-27219 8 mg/kg/12 h IP for 3 weeks vs candesartan cilexetil 3 mg/kg/24 h in drinking water
Description: For long-term ‘in vivo’ experiments, stocks of LDN-27219 dissolved in PEG-400 were diluted in saline solution containing SBE-b-CD to improve solubility (9 mg/mL NaCl; 15% (w/v) SBE-b-CD) […], resulting in a final concentration of 2.00 mg/mL of LDN-27219 in 10% PEG-400/90%(15% (w/v) SBE-b-CD in saline solution). For the treatment on the drinking water 1 mg/ml Candesartan cilexetil was dissolved in a vehicle of polyethylene glycol 400 (10% v/v), ethanol (5% v/v), cremophor EL (2% v/v), and tap water (83% v/v) and the pH was adjusted to 9.0 with 0.5 mol/L Na2CO3 prior to dilution to the final concentration in tap water, as previously described (Seltzer A., et al., Brain Res., 2004, 1028(1), 9-18). Final concentrations needed to achieve the desired doses of candesartan cilexetil per day were determined by measuring water consumption each 3-4 days.
For long-term ‘in vivo’ studies, diabetic homozygous mice were randomly allocated into three groups: 1) treatment with Intraperitoneal (IP) injections of LDN-27219 (8 mg/kg/12 h) and vehicle drinking water [LDN-27219 treatment group], or 2) treatment with IP injections of vehicle (each 12 h) and candesartan cilexetil (3 mg/kg/24 h) in the drinking water [candesartan treatment group], or 3) treatment with IP injections of vehicle (each 12 h) and vehicle drinking water [vehicle treatment group]. […]

SMILES: NNC(=O)CSc1nc2scc(-c3ccccc3)c2c(=O)n1-c1ccccc1 [LDN-27219]
- mean blood pressure (MAP) ([1]; LDN-27219 0.1, 1.0 and 2.0 mg/kg, intrajugular infusion during 3 minutes, carotid artery): lowers the mean blood pressure
- age dependence of antihypertensive effect (AUC of MAP) ([1]; rats >30 weeks vs 12-14 weeks old): greater effect of LDN-27219 in older animals
- potassium currents compared to control conditions [2]: potassium currents significantly bigger
- clearance [3]: 52.3 mL/min/kg
- half-life [3]: 4.89 h
- Vd ([3]; read-out: Volume of distribution): 21.4 L/kg
- prevention of diabetes-related endothelial dysfunction [4]: able to prevent diabetes-related endothelial dysfunction better than the long-term treatment with angiotensin II receptor antagonist candesartan cilexetil
